Results on 25 compounds are retold here after patent US20260125375A1 (Pfizer Inc., priority 2022, published 2026).

By Kd is commonly meant the equilibrium constant for the complex coming apart. As a reminder, the Ki is the dissociation constant of the complex between target and ligand, obtained from inhibition or displacement.

The target of one assay is T1, WT CBL-B (36-427) (Homo sapiens, UniProt Q13191).
T1 construct: N-terminal biotinylated WT CBL-B (36-427) and C-CBL (46-435) were captured on a streptavidin (SA) coated sensor chip
Put plainly: Surface Plasmon Resonance (SPR) assay, binding affinity and kinetics, CBL-B. Particulars: SPR at 10° C., biotinylated WT CBL-B (36-427) on streptavidin chip; geometric mean; read-out: CBL-B SPR Kd (nM) GMean. A digest of the protocol:
(§1)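 SPR kinetics at 10° C, run either single-cycle (0.001–1 μM, 3-fold, 6 points, 120 s on, >5400 s off) or multi-cycle (10 points, 2-fold, top 10 or 100 μM, 90 s on). Proteins were N-biotinylated CBL-B (36-427) and C-CBL (46-435) on SA surfaces, in pH 7.2 HEPES, 2% DMSO.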

The target of the next assay is T2, C-CBL (residues 46-435) (Homo sapiens, UniProt P22681).
T2 construct: Purified CBL-B (residues 36-427) and C-CBL (residues 46-435) proteins from baculovirus-infected insect cells; made in house; host or cells: baculovirus-infected insect cells
T2 sequence (P22681 46-435): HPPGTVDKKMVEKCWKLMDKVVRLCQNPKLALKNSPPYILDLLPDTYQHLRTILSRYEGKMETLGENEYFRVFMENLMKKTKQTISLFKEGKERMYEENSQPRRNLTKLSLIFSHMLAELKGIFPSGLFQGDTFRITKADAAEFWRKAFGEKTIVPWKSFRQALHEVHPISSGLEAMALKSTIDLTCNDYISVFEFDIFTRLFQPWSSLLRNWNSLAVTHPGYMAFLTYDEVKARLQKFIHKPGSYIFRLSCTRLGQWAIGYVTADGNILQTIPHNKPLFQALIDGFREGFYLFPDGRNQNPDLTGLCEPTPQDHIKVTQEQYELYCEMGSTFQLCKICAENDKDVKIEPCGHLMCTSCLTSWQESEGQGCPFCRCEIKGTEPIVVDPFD
Put plainly: Ligand Displacement Assay (LDA), HTRF competitive binding against BODIPY-labeled fluorescent tracer, C-CBL. Conditions: geometric mean of the number of tests, read-out: C-CBL Ki (nM) GMean. A digest of the protocol: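 Ki values, given as geometric means of repeated tests, come from TR-FRET displacement of a BODIPY-labelled tracer from terbium-streptavidin-bound, AviTag-biotinylated protein made in baculovirus-infected insect cells. Compounds ran as three-fold dilutions in duplicate, […], 2% DMSO.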
(TR-FRET usually uses a lanthanide donor and a delayed reading to cut background.)

In a further assay the target is T3, C-CBL (46-435) (Homo sapiens, UniProt P22681).
T3 construct: N-terminal biotinylated WT CBL-B (36-427) and C-CBL (46-435) were captured on a streptavidin (SA) coated sensor chip
T3 sequence (P22681 46-435): T2 sequence (P22681 46-435)
Put plainly: Surface Plasmon Resonance (SPR) assay, binding affinity and kinetics, C-CBL. Conditions: SPR at 10° C., biotinylated C-CBL (46-435) on streptavidin chip; geometric mean; read-out: C-CBL SPR Kd (nM) GMean. In a few lines: as §1

In the case of `C[C@@H]1CCCN(Cc2nc(C(F)(F)F)cc3c(-c4cccc(C5(Cc6nncn6C)COC5)c4)n[nH]c23)C1` [Example C29, 7-{[(3R)-3-methylpiperidin-1-yl]methyl}-3-(3-{3-[(4-methyl-4H-1,2,4-triazol-3-yl)methyl]oxetan-3-yl}phenyl)-5-(trifluoromethyl)-1H-pyrazolo[3,4-c]pyridine], the Kd on WT CBL-B (36-427) is 3.8 nM; at C-CBL (46-435), 195 nM. The Ki at C-CBL (residues 46-435) came to 46.3 nM.
For `CC1CN(Cc2nc(C(F)(F)F)cc3c(-c4cccc(C5(Cc6nncn6C)COC5)c4)n[nH]c23)CCC1(F)F` (single isomer, unassigned) [Example C32, 7-{[(3ξ)-4,4-difluoro-3-methylpiperidin-1-yl]methyl}-3-(3-{3-[(4-methyl-4H-1,2,4-triazol-3-yl)methyl]oxetan-3-yl}phenyl)-5-(trifluoromethyl)-1H-pyrazolo[3,4-c]pyridine], in that order: 0.8 nM, 42.6 nM and 55.6 nM.
The like results for `C[C@@H](N[C@@H]1CCC(F)(F)C1)c1nc(C(F)(F)F)cc2c(-c3cccc(C4(Cc5nncn5C)COC4)c3)n[nH]c12` (single isomer, unassigned) [Example C18] were, in that order, 0.7 nM, 6.2 nM and 15.1 nM.
Consider `C[C@@H](NC1CCCC1)c1nc(C(F)(F)F)cc2c(-c3cccc([C@H](c4nncn4C)C4CCC4)c3)n[nH]c12` (single isomer, unassigned) [Example C11], for which the Kd at WT CBL-B (36-427) is 0.9 nM; on C-CBL (46-435) it was 6.1 nM. Also, the Ki at C-CBL (residues 46-435) came to 3.7 nM.
For `CCNC(C)c1nc(C(F)(F)F)cc2c(-c3cccc([C@H](c4nncn4C)C4CCC4)c3)n[nH]c12` (single isomer, unassigned) [Example C89], the values for the Kd at WT CBL-B (36-427) and at C-CBL (46-435) were 4.1 nM and 125 nM, respectively. Moreover, the Ki on C-CBL (residues 46-435) was 105 nM.
For `C[C@@H](c1nc(C(F)(F)F)cc2c(-c3cccc(C4(Cc5nncn5C)COC4)c3)n[nH]c12)N1C[C@H](F)[C@@H](F)C1` (single isomer, unassigned) [Example D7], in that order: 2.3 nM, 36 nM and 28.1 nM.
As for `C[C@@H](NC1CC(F)(F)C1)c1nc(C(F)(F)F)cc2c(-c3cccc([C@H](c4nncn4C)C4CCC4)c3)n[nH]c12` (single isomer, unassigned) [Example D91], the figures for the Kd at WT CBL-B (36-427) and at C-CBL (46-435) were 6.3 nM and 35.4 nM, respectively. In addition, at C-CBL (residues 46-435), the Ki is 66.8 nM.
For `C[C@@H](N[C@@H]1CCC[C@@H]1O)c1nc(C(F)(F)F)cc2c(-c3cccc([C@H](c4nncn4C)C4CCC4)c3)n[nH]c12` (single isomer, unassigned) [Example D16], in that order: 3.6 nM, 43.1 nM and 24.5 nM.
The like results for `C[C@H](c1nc(C(F)(F)F)cc2c(-c3cccc(C4(Cc5nncn5C)COC4)c3)n[nH]c12)N1CCO[C@@H](C)C1` (single isomer, unassigned) [Example D12] were, in that order, 6.6 nM, 46 nM and 52.9 nM.
The like results for `C[C@@H](c1nc(C(F)(F)F)cc2c(-c3cccc(C4(Cc5nncn5C)COC4)c3)n[nH]c12)N1CC[C@@H](F)C1` (single isomer, unassigned) [Example D9] were, in that order, 8.3 nM, 96 nM and 71.8 nM.
In the case of `C[C@@H](N[C@H]1C[C@@H](F)C1)c1nc(C(F)(F)F)cc2c(-c3cccc([C@H](c4nncn4C)C4CCC4)c3)n[nH]c12` (single isomer, unassigned) [Example C96], the dissociation constant Kd was 3.3 nM on WT CBL-B (36-427) and 91.2 nM on C-CBL (46-435). Besides, the Ki on C-CBL (residues 46-435) was determined as 53.5 nM.
In the case of `C[C@H](c1nc(C(F)(F)F)cc2c(-c3cccc(C4(Cc5nncn5C)COC4)c3)n[nH]c12)N1C[C@H](F)[C@@H](F)C1` (single isomer, unassigned) [Example D8], the Kd at WT CBL-B (36-427) was 15.8 nM; at C-CBL (46-435), 177 nM. The Ki at C-CBL (residues 46-435) worked out at 113 nM.
`C[C@H]1CCCN(Cc2nc(C(F)(F)F)cc3c(-c4cccc(C5(Cc6nncn6C)COC5)c4)n[nH]c23)C1` [Example C30, 7-{[(3S)-3-methylpiperidin-1-yl]methyl}-3-(3-{3-[(4-methyl-4H-1,2,4-triazol-3-yl)methyl]oxetan-3-yl}phenyl)-5-(trifluoromethyl)-1H-pyrazolo[3,4-c]pyridine]: the Kd on WT CBL-B (36-427) amounted to 3 nM; on C-CBL (46-435), 35.9 nM. Moreover, at C-CBL (residues 46-435), the Ki came to 23.4 nM.
For the compound `C[C@H](NC1CCCC1)c1nc(C(F)(F)F)cc2c(-c3cccc([C@H](c4nncn4C)C4CCC4)c3)n[nH]c12` (single isomer, unassigned) [Example C10], the figures for the Kd at WT CBL-B (36-427) and at C-CBL (46-435) were 11.5 nM and 189 nM, respectively. Also, the Ki at C-CBL (residues 46-435) worked out at 108 nM.
For `Cn1cnnc1[C@@H](c1cccc(-c2n[nH]c3c(CN[C@H]4CCC(F)(F)C4)nc(C(F)(F)F)cc23)c1)C1CCC1` (single isomer, unassigned) [Example G1], in that order: 8 nM, 60.8 nM and 118 nM.
The like results for `C[C@H](N[C@H]1CCC(F)(F)C1)c1nc(C(F)(F)F)cc2c(-c3cccc(C4(Cc5nncn5C)COC4)c3)n[nH]c12` (single isomer, unassigned) [Example C12] were, in that order, 0.8 nM, 1.8 nM and 1.3 nM.
Take `C[C@H](NC1CC(F)(F)C1)c1nc(C(F)(F)F)cc2c(-c3cccc([C@H](c4nncn4C)C4CCC4)c3)n[nH]c12` (single isomer, unassigned) [Example D90]: the Kd at WT CBL-B (36-427) was determined as 6.5 nM; on C-CBL (46-435), 77.4 nM. Besides, at C-CBL (residues 46-435), the inhibition constant (Ki) was 147 nM.
For `C[C@H](N[C@@H]1CC[C@@H]1O)c1nc(C(F)(F)F)cc2c(-c3cccc([C@H](c4nncn4C)C4CCC4)c3)n[nH]c12` (single isomer, unassigned) [Example D28], the figures for the Kd at WT CBL-B (36-427) and at C-CBL (46-435) were 0.4 nM and 2.2 nM, respectively. In addition, at C-CBL (residues 46-435), the inhibition constant Ki came to 0.6 nM.
For `C[C@@H]1CCCN([C@H](C)c2nc(C(F)(F)F)cc3c(-c4cccc(C5(Cc6nncn6C)COC5)c4)n[nH]c23)C1` (single isomer, unassigned) [Example D14], in that order: 11.1 nM, 140 nM and 183 nM.
The like results for `CC(C)NC(C)c1nc(C(F)(F)F)cc2c(-c3cccc([C@H](c4nncn4C)C4CCC4)c3)n[nH]c12` (single isomer, unassigned) [Example C34] were, in that order, 5.2 nM, 172 nM and 88.5 nM.
The like results for `C[C@@H](N[C@H]1CC[C@@H]1O)c1nc(C(F)(F)F)cc2c(-c3cccc([C@H](c4nncn4C)C4CCC4)c3)n[nH]c12` (single isomer, unassigned) [Example D22] were, in that order, 1.5 nM, 9.8 nM and 5.8 nM.
`C[C@H](c1nc(C(F)(F)F)cc2c(-c3cccc(C4(Cc5nncn5C)COC4)c3)n[nH]c12)N1C[C@@H](F)[C@H](F)C1` (single isomer, unassigned) [Example C26]: the Kd on WT CBL-B (36-427) turned out to be 13.2 nM; at C-CBL (46-435), 183 nM. The inhibition constant (Ki) at C-CBL (residues 46-435) turned out to be 198 nM.
For `C[C@@H](c1nc(C(F)(F)F)cc2c(-c3cccc(C4(Cc5nncn5C)COC4)c3)n[nH]c12)N1CCC(F)(F)C1` (single isomer, unassigned) [Example D5], in that order: 21.9 nM, 209 nM and 148 nM.
For `Cn1cnnc1CC1(c2cccc(-c3n[nH]c4ncc(C(F)(F)F)cc34)c2)COC1` [Example B3, 3-(3-{3-[(4-methyl-4H-1,2,4-triazol-3-yl)methyl]oxetan-3-yl}phenyl)-5-(trifluoromethyl)-1H-pyrazolo[3,4-b]pyridine], in that order: 67.9 nM, 861 nM and 363 nM.
`CC(NC1CNC1)c1nc(C(F)(F)F)cc2c(-c3cccc(C4(Cc5nncn5C)COC4)c3)n[nH]c12` (single isomer, unassigned) [Example C28, N-{(1ξ)-1-[3-(3-{3-[(4-methyl-4H-1,2,4-triazol-3-yl)methyl]oxetan-3-yl}phenyl)-5-(trifluoromethyl)-1H-pyrazolo[3,4-c]pyridin-7-yl]ethyl}azetidin-3-amine]: the Kd worked out at 17.3 nM on WT CBL-B (36-427) and 125 nM at C-CBL (46-435). The Ki on C-CBL (residues 46-435) was determined as 114 nM.
